Molecular target: T1, Thermolysin (Bacillus thermoproteolyticus, UniProt P00800)
T1 construct: gene npr
Assay: TIMES (label-free, immobilization-free microfluidic electronic detection), […] Tris-HCl buffer pH […]
Format: binding
Details: read-out: Measured KD from TIMES

T1 sequence (P00800 233-548): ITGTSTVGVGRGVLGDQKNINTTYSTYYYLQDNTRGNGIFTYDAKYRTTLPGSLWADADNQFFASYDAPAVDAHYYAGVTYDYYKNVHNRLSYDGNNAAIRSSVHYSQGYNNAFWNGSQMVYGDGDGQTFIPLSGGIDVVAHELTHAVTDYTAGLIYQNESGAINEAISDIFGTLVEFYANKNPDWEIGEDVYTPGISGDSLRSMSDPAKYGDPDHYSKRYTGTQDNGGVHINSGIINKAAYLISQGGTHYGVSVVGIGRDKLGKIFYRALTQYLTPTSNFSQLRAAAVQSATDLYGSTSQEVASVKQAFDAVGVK

## CC(C)C[C@H](NP(=O)(O)O[C@@H]1O[C@@H](C)[C@H](O)[C@@H](O)[C@H]1O)C(=O)N[C@@H](Cc1c[nH]c2ccccc12)C(=O)O [phosphoramidon]
  Kd: 32.1 ± 1.9 nM
